Test results published in ChEMBL document CHEMBL1649086, “Evaluation of novel N1-methyl-2-phenylindol-3-ylglyoxylamides as a new chemotype of 18 kDa translocator protein-selective ligand suitable for the development of positron emission tomography radioligands” (J Med Chem, 2011).
The source made the active and inactive calls. The rule behind the calls is not given here.

Assays:
Translocator protein = Translocator protein (Rattus norvegicus, UniProt P16257); experiment: Displacement of [3H]PK11195 from TSPO in rat kidney mitochondrial membrane
Chain of Translocator protein (P16257 whole entry, looked up): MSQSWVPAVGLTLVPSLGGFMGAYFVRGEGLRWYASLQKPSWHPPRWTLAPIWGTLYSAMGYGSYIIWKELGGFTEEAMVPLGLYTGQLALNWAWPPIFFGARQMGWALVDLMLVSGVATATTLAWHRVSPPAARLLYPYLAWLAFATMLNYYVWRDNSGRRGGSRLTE

[1] = system: GABA-A receptor, central benzodiazepine site (Rattus norvegicus); experiment: Displacement of [3H]flumazenil from central benzodiazepine site of GABA-A receptor in rat cerebral cortex membrane after 90 mins
[2] = Drug level in monkey putamen at 0.155 to 0.859 nmol/kg, iv after 40 mins; assay type: ADME, organism-based, Macaca mulatta; conditions: rhesus monkey, in vivo
Plasma = experiment: Fraction unbound in monkey plasma at 0.155 to 0.859 nmol/kg, iv by PET analysis; assay type: ADME, organism-based, Macaca mulatta; conditions: rhesus monkey, in vivo

Row | Compound | Ki (Translocator protein) [nM] | Activity [1] | SUV [2] | Fu (Plasma) [%]
1 | CCCCN(CC)C(=O)C(=O)c1c(-c2ccccc2)[nH]c2ccccc12 | – | inactive | – | –
2 | CN(Cc1ccccc1)C(=O)C(=O)c1c(-c2ccccc2)n(C)c2ccccc12 | 20.9 | inactive | – | –
3 | CN(Cc1ccccc1)C(=O)C(=O)c1c(-c2ccccc2)[nH]c2ccccc12 | 12 | inactive | – | –
4 | CCCCCCN(CCCCCC)C(=O)C(=O)c1c(-c2ccccc2)n(C)c2ccccc12 | 0.299 | inactive | – | –
5 | CCN(Cc1ccccc1)C(=O)C(=O)c1c(-c2ccccc2)n(C)c2ccccc12 | 2.92 | inactive | – | –
6 | CCN(Cc1ccccc1)C(=O)C(=O)c1c(-c2ccccc2)[nH]c2ccccc12 | – | inactive | – | –
7 | CCCCCCN(CCCCCC)C(=O)C(=O)c1c(-c2ccc(F)cc2)[nH]c2ccccc12 | – | inactive | – | –
8 | CCCN(CCC)C(=O)C(=O)c1c(-c2ccccc2)[nH]c2ccccc12 | – | inactive | – | –
9 | CCCCCN(C)C(=O)C(=O)c1c(-c2ccccc2)[nH]c2ccccc12 | – | inactive | – | –
10 | CCCCN(CCCC)C(=O)C(=O)c1c(-c2ccccc2)[nH]c2ccccc12 | – | inactive | – | –
11 | CCCCN(C)C(=O)C(=O)c1c(-c2ccccc2)n(C)c2ccccc12 | 190 | inactive | – | –
12 | CCCCN(C)C(=O)C(=O)c1c(-c2ccccc2)[nH]c2ccccc12 | – | inactive | – | –
13 | CCCCCN(C)C(=O)C(=O)c1c(-c2ccccc2)n(C)c2ccccc12 | 38.2 | inactive | – | –
14 | CN(Cc1ccccc1)C(=O)C(=O)c1c(-c2ccc(F)cc2)[nH]c2ccccc12 | 1.8 | inactive | – | –
15 | CCCCCCN(CCCCCC)C(=O)C(=O)c1c(-c2ccccc2)[nH]c2ccccc12 | – | inactive | – | –

Other lines, results leading:

Row | Ki (Translocator protein) [nM] | Activity [1] | SUV [2] | Fu (Plasma) [%] | Compound
16 | 1.07 | inactive | – | – | CCCCCCN(CCCCCC)C(=O)C(=O)c1c(-c2ccc(F)cc2)n(C)c2ccccc12
17 | 23.7 | inactive | – | – | CCCN(CCC)C(=O)C(=O)c1c(-c2ccccc2)n(C)c2ccc(F)cc12
18 | – | inactive | – | – | CCCN(CCC)C(=O)C(=O)c1c(-c2ccc(F)cc2)[nH]c2ccccc12
19 | 19.5 | inactive | – | – | CCCN(CCC)C(=O)C(=O)c1c(-c2ccccc2)n(C)c2ccccc12
20 | – | – | 2.32 | 0.71 | CCCN(CCC)C(=O)C(=O)c1c(-c2cc[11c]([N+](=O)[O-])cc2)n(C)c2ccccc12
21 | 60.2 | inactive | – | – | CCCCN(CC)C(=O)C(=O)c1c(-c2ccccc2)n(C)c2ccccc12
22 | 19.8 | inactive | – | – | CCCN(CCC)C(=O)C(=O)c1c(-c2ccc(F)cc2)n(C)c2ccccc12
23 | – | inactive | – | – | CCCN(CCC)C(=O)C(=O)c1c(-c2ccccc2)[nH]c2ccc(F)cc12
24 | 6.77 | inactive | – | – | CN(Cc1ccccc1)C(=O)C(=O)c1c(-c2ccc(F)cc2)n(C)c2ccccc12
25 | 5.7 | – | – | – | CCCN(CCC)C(=O)C(=O)c1c(-c2ccc([N+](=O)[O-])cc2)n(C)c2ccccc12
26 | 0.3 | inactive | – | – | CCCCN(CCCC)C(=O)C(=O)c1c(-c2ccccc2)n(C)c2ccccc12
